Molecules are shown by their SMILES. Some results are limits rather than exact numbers.

Data set [1] is described as follows: Permeability of the compound by PAMPA. In kind it is ADME.
A short description of data set [2]: Clearance in mouse liver microsomes. Particulars: read-out: CLH. Format: ADME, microsome. On the technique in general: Liver microsomes are a subcellular fraction often used to study metabolism.
Data set [3] in a line: Half life in nude mouse at 1 mg/kg, iv by HPLC-MS/MS analysis. Format: ADME, organism-based. Particulars: in vivo.
Data set [4] can be described thus: Clearance in nude mouse at 1 mg/kg, iv by HPLC-MS/MS analysis. In kind it is ADME, organism-based. Conditions: in vivo.
Data set [5] is described as follows: Volume of distribution at steady state in nude mouse at 1 mg/kg, iv by HPLC-MS/MS analysis. Conditions: in vivo, read-out: Vdss. Format: ADME, organism-based.
The nature of data set [6]: Cmax in nude mouse at 10 mg/kg, po by HPLC-MS/MS analysis. In kind it is ADME, organism-based. The arrangement: dose 10 mg/kg, route oral. Particulars: in vivo.
Data set [7] can be described thus: Tmax in nude mouse at 10 mg/kg, po by HPLC-MS/MS analysis. Format: ADME, organism-based. Conditions: in vivo.
The nature of data set [8]: Oral bioavailability in nude mouse at 10 mg/kg by HPLC-MS/MS analysis. Format: ADME, organism-based. Conditions: in vivo.
The nature of data set [9]: AUC in nude mouse at 1 mg/kg, iv by HPLC-MS/MS analysis. In kind it is ADME, organism-based. Conditions: in vivo.
Data set [10] is described as follows: AUC in nude mouse at 10 mg/kg, po by HPLC-MS/MS analysis. Conditions: in vivo. In kind it is ADME, organism-based.
Data set [11] in a line: Half life in mouse microsomes. In kind it is ADME, Microsome.
Data set [12] can be described thus: AUC in nude mouse at 15 mg/kg, po by HPLC-MS/MS analysis. Format: ADME, organism-based. Conditions: in vivo.
A short description of data set [13]: Cmax in nude mouse at 15 mg/kg, po by HPLC-MS/MS analysis. In kind it is ADME, organism-based. More on the design: dose 15 mg/kg, route oral. Particulars: in vivo.
Data set [14] can be described thus: Tmax in nude mouse at 15 mg/kg, po by HPLC-MS/MS analysis. Format: ADME, organism-based. Conditions: in vivo.

Turning to `C[C@H](NC(=O)C1CCOCC1)c1ccc(NC(=O)[C@H]2C[C@@H]2c2cccnc2)cc1`, in data set [1], the permeability entry is “Impermeable”. Besides, the microsomal CLint in [2] amounted to 25.1 µL/min/mg.
The like results for `C[C@H](NC(=O)c1ccccn1)c1ccc(NC(=O)[C@H]2C[C@@H]2c2cccnc2)cc1` were, in that order, “Permeable” and below 3.42 µL/min/mg.
The like results for `C[C@H](NC(=O)c1ccc(F)cc1)c1ccc(NC(=O)[C@H]2C[C@@H]2c2cccnc2)cc1` were, in that order, “Permeable” and 13.7 µL/min/mg.
In the case of `C[C@H](NC(=O)[C@@H]1CCCN1C)c1ccc(NC(=O)[C@H]2C[C@@H]2c2cccnc2)cc1`, the permeability entry in data set [1] was “Permeable”. Moreover, in data set [2], the microsomal CLint is 65.4 µL/min/mg.
The compound `C[C@H](NC(=O)c1ccccc1)c1ccc(NC(=O)[C@H]2C[C@@H]2c2cccnc2)cc1` had a half-life in [3] of 1.5 h. In [4], this compound gave a clearance of 6.8 mL/min/kg. The Vd in data set [5] was found to be 0.5 L/kg. In data set [6], this compound registered a Cmax of 12.7 µM. For the same compound, in data set [7], the Tmax came to 0.5 h. Also, the bioavailability in data set [8] was found to be 31%. Further, the AUC was determined as 6.18 µM·h in data set [9] and 19.2 µM·h in data set [10]. The permeability result in data set [1] was “Permeable”. Further, in [2], the microsomal CLint was found to be 148 µL/min/mg.
Turning to `COCC(=O)N[C@@H](C)c1ccc(NC(=O)[C@H]2C[C@@H]2c2cccnc2)cc1`, in data set [1], the permeability entry is “Impermeable”. The microsomal CLint in data set [2] came to 43.2 µL/min/mg.
The matching figures for `C[C@H](NC(=O)c1ccc(C#N)cc1)c1ccc(NC(=O)[C@H]2C[C@@H]2c2cccnc2)cc1`: “Impermeable” and 53 µL/min/mg.
Consider `C[C@H](NC(=O)c1ccc(CN2CCOCC2)cc1)c1ccc(NC(=O)[C@H]2C[C@@H]2c2cccnc2)cc1`, for which the permeability entry in data set [1] is reported as “Impermeable”. This compound also displayed a half-life in data set [11] of 7.67 h.
On to `C[C@H](NC(=O)c1ncccn1)c1ccc(NC(=O)[C@H]2C[C@@H]2c2cccnc2)cc1`, for which the permeability entry in data set [1] was “Permeable”. Also, the microsomal CLint in data set [2] is 38.4 µL/min/mg.
In the case of `CCC(=O)N[C@@H](C)c1ccc(NC(=O)[C@H]2C[C@@H]2c2cccnc2)cc1`, in data set [1], the permeability result is “Impermeable”. Further, the half-life in data set [11] worked out at 35 h.
`C[C@H](NC(=O)CC(F)(F)F)c1ccc(NC(=O)[C@H]2C[C@@H]2c2cccnc2)cc1`: in data set [1], the permeability entry is listed as “Impermeable”. Also, the microsomal CLint in data set [2] was found to be 83.7 µL/min/mg.
Compound `O=C(NCc1ccc(S(=O)(=O)c2cccc(Cl)c2)cc1)c1cc2cnccc2[nH]1` displayed an area under the curve (AUC) in data set [12] of 9.2 µM·h. The Cmax in [13] turned out to be 2.07 µM. Further, the Tmax in [14] is 1 h.

In general, half-life refers to the time in which the quantity being followed falls by half. A higher half-life goes with slow loss. Usually clearance stands for the volume of plasma or blood freed of the substance per unit of time. High values mean a high capacity for elimination, low ones a low capacity for elimination. A word on the Cmax: it is the maximum level reached in the sampled fluid or tissue. The Tmax is the time at which the peak concentration occurs. The bioavailability is dose-corrected exposure relative to a reference, in per cent. As a reminder, the AUC is the area under the concentration-time curve, a measure of exposure. Low values mean less exposure, high ones more exposure.

Source of the values: ChEMBL document CHEMBL4184107, “Structure based design of nicotinamide phosphoribosyltransferase (NAMPT) inhibitors from a phenotypic screen” (Bioorg Med Chem Lett, 2018).
